According to publication PMC7932521, “2-aminobenzimidazoles for leishmaniasis: From initial hit discovery to in vivo profiling” (PLoS Neglected Tropical Diseases, 2021):

Columns and labels:
Assay type in all cases: cell-based
Kv11.1 (hERG) = biological target: T1, Kv11.1 (hERG) (Homo sapiens, UniProt Q12809); experiment: hERG thallium influx assay; conditions: KCl, read-out: Bioprofiling 6pt Thallium Influx Antag Kv11.1 (hERG) CHO Human IC50
T1 construct: host or cells: T-REx-CHO, doxycycline-induced
Protocol: This was adapted from the literature method;[28] briefly, hERG functional activity was measured in an inducible hERG T-RExTM-CHO Cell line (ThermoFisher #K1237) using thallium influx as a surrogate indicator of potassium ion channel activity. Thallium enhances the fluorescent signal of BTC-AM dye (ThermoFisher #B6791). 384 well plates were seeded at 15,000 cells/well with doxycycline hyclate, included to induce expression of the hERG channel, and grown for 48 hours. Media was removed and cells were loaded with 4 μM dye for 90 mins in a low potassium buffer, dye was then removed and compound added to the cells in a high potassium buffer in a 6 point 1:3 dilution dose series (maximum final concentration of 30 μM). After 30 mins of compound incubation, channel activity was recorded upon addition of thallium buffer using a Tetra plate reader. The slope of the kinetic read was used to calculate channel activity.

A1 [1] = biological target: T2, A1 (Homo sapiens, UniProt P30542); experiment: Bioprofiling 6pt Ag A1 CHO; conditions: agonist readout
T2 construct: expressed in transfected cells; host or cells: CHO
T2 sequence (P30542 1-326): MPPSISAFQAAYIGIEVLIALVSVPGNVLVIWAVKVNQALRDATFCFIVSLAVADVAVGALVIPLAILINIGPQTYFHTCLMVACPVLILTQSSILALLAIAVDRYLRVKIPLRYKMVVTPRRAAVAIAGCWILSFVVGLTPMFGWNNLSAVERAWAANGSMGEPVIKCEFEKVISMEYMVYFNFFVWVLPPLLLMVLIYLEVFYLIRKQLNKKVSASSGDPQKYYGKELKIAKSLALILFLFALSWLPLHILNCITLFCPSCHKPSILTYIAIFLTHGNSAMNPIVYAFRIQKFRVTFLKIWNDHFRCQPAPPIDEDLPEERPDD
Protocol: (§1) The compounds were evaluated across a panel of 20 liability targets (37 functional assays) which included functional cell-based GPCRs and ion channels in both agonist and antagonist readout, measuring calcium flux and biochemical functional assays for nuclear hormone receptors and phosphodiesterases using TR-FRET format, in a 6 point 1:3 dilution dose series (maximum final concentration of 10 μM).

B2 = biological target: T3, B2 (Homo sapiens, UniProt P30411); experiment: Bioprofiling 6pt Ag B2 CHO; conditions: agonist readout
T3 construct: expressed in transfected cells; host or cells: CHO
T3 sequence (P30411 1-391): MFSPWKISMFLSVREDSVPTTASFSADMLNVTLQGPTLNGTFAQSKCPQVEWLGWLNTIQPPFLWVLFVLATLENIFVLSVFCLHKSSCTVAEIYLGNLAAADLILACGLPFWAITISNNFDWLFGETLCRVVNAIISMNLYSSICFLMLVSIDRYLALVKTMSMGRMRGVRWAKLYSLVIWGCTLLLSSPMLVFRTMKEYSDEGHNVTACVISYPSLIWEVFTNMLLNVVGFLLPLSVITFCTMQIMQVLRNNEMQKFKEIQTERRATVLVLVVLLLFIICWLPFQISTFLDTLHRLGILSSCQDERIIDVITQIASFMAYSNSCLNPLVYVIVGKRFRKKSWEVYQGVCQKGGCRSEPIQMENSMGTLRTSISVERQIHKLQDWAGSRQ
Protocol: as §1

Beta1 = biological target: T4, Beta1 (Homo sapiens, UniProt P08588); experiment: Bioprofiling 6pt Ag Beta1 CHO; conditions: agonist readout
T4 construct: expressed in transfected cells; host or cells: CHO
Protocol: as §1

M2 = biological target: T5, M2 (Homo sapiens, UniProt P08172); experiment: Bioprofiling 6pt Ag M2 CHO; conditions: agonist readout
T5 construct: expressed in transfected cells; host or cells: CHO
T5 sequence (P08172 1-466): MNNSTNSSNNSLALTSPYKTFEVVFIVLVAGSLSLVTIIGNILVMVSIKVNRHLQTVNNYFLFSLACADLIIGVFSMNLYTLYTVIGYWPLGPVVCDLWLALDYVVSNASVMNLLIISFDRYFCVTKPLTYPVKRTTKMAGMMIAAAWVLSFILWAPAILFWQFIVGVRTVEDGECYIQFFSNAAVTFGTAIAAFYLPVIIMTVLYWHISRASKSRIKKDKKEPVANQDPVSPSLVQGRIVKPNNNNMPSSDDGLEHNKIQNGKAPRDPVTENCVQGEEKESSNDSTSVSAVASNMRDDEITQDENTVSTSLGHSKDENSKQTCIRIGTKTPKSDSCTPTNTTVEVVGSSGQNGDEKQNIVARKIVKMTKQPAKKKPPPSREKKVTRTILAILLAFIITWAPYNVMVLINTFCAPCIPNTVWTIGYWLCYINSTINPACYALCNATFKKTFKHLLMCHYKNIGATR
Protocol: as §1

Opioid mu = biological target: T6, Opioid mu (Homo sapiens, UniProt P35372); experiment: Bioprofiling 6pt Ag Opioid mu CHO; conditions: agonist readout
T6 construct: expressed in transfected cells; host or cells: CHO
Protocol: as §1

A1 [2] = biological target: T2, A1; experiment: Bioprofiling 6pt Antag A1 CHO; conditions: antagonist readout vs N6-Cyclopentyladenosine (CPA)
Protocol: as §1

Alpha1A = biological target: T7, Alpha1A (Homo sapiens, UniProt P35348); experiment: Bioprofiling 6pt Antag Alpha1A CHO; conditions: antagonist readout vs A-61603
T7 construct: expressed in transfected cells; host or cells: CHO
T7 sequence (P35348 1-466): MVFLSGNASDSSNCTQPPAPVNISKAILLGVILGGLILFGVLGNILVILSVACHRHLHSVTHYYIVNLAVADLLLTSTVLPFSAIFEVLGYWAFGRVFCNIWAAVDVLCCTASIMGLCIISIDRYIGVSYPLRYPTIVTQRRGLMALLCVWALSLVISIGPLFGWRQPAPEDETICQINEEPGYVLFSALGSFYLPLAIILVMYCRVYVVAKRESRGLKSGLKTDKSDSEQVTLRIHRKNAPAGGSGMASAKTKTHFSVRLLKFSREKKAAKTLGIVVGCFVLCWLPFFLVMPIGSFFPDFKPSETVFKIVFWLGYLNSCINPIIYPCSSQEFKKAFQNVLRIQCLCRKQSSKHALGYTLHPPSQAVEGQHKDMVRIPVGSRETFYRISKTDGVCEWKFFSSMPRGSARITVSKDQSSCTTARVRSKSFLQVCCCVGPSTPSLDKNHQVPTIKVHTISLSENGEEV
Protocol: as §1

ETA = biological target: T8, ETA (Homo sapiens, UniProt P25101); experiment: Bioprofiling 6pt Antag ETA CHO; conditions: antagonist readout vs Endothelin-1 (ET-1)
T8 construct: expressed in transfected cells; host or cells: CHO
T8 sequence (P25101 21-427): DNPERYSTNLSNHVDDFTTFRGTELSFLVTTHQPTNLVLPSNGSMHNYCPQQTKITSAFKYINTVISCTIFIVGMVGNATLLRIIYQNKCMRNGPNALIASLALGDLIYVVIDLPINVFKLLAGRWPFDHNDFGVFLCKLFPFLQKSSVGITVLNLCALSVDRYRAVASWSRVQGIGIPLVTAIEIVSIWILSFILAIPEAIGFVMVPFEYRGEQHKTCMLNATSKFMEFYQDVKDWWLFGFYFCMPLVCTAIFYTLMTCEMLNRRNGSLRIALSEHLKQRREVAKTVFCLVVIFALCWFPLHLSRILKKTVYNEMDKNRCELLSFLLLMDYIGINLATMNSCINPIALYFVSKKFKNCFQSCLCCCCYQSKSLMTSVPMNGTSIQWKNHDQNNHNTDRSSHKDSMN
Protocol: as §1

T4 sequence (P08588 whole entry): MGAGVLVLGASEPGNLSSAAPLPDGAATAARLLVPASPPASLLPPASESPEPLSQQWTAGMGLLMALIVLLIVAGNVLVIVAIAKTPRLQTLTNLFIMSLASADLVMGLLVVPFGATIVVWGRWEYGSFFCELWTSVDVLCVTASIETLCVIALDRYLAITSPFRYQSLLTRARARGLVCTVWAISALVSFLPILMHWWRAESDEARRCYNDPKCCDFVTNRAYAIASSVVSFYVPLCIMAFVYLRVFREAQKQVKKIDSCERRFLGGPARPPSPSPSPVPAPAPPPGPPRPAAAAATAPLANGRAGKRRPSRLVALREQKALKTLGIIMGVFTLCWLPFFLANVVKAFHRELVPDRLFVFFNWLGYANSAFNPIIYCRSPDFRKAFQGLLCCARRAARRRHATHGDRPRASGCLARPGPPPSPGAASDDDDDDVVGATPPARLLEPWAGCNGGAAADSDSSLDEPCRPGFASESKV
T1 sequence (Q12809 whole entry): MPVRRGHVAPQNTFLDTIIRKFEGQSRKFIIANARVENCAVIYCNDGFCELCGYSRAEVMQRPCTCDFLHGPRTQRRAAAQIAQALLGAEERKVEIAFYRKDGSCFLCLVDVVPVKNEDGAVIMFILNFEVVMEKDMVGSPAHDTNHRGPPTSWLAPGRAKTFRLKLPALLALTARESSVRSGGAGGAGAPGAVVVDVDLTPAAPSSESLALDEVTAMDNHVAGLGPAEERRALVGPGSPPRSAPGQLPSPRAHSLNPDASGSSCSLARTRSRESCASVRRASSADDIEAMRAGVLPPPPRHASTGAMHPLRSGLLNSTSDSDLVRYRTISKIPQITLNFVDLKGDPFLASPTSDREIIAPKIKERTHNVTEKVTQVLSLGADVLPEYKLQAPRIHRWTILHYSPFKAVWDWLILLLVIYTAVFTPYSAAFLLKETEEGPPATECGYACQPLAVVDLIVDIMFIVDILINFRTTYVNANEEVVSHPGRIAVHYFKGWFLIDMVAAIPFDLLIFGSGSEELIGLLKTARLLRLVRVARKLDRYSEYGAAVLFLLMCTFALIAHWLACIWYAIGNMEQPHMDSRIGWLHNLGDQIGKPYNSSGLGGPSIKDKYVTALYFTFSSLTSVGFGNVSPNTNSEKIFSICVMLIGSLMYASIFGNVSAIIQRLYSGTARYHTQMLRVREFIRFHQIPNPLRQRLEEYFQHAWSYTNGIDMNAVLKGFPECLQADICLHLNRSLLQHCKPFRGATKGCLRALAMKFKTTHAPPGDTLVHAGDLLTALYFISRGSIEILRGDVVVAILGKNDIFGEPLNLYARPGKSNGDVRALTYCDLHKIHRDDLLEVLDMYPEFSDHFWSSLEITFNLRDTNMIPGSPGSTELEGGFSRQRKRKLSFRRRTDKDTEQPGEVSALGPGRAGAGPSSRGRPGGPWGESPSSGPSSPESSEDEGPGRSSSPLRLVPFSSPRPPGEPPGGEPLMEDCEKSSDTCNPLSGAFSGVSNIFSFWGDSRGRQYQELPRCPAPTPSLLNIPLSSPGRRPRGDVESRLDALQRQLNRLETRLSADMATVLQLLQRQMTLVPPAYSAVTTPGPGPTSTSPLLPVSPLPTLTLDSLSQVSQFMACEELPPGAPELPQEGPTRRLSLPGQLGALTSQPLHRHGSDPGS
T6 sequence (P35372 whole entry): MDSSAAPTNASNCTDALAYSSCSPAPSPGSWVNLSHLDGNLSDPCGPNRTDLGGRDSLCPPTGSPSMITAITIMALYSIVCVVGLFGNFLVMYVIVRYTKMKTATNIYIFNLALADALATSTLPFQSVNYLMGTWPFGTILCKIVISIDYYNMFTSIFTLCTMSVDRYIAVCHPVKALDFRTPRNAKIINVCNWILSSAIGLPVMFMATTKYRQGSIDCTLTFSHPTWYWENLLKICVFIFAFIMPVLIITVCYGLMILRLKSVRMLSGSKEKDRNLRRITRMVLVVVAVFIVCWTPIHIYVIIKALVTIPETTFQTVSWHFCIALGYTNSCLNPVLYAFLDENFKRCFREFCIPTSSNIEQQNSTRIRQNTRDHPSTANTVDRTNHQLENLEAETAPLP

| Compound | IC50 (Kv11.1 (hERG)) [µM] | EC50 (A1 [1]) [µM] | EC50 (B2) [µM] | EC50 (Beta1) [µM] | EC50 (M2) [µM] | EC50 (Opioid mu) [µM] | IC50 (A1 [2]) [µM] | IC50 (Alpha1A) [µM] | IC50 (ETA) [µM] |
| --- | --- | --- | --- | --- | --- | --- | --- | --- | --- |
| Cn1nccc1C(=O)Nc1nc2ccc(C#N)cc2n1CC(C)(C)C [Compound 29, O=C(Nc1n(CC(C)(C)C)c(c2n1)cc(C#N)cc2)c3n(C)ncc3] | > 30 | > 10 | > 10 | > 10 | > 10 | > 10 | > 10 | > 10 | > 10 |
| Cn1nccc1C(=O)Nc1nc2ccc(C#N)cc2n1CC(F)(F)F [Compound 30, O=C(c1ccnn1C)Nc2nc(ccc(C#N)c3)c3n2CC(F)(F)F] | > 30 | > 10 | > 10 | > 10 | > 10 | > 10 | > 10 | > 10 | > 10 |
| Cn1nc(C(F)(F)F)cc1C(=O)Nc1nc2ccc(C#N)cc2n1CC(F)(F)F [Compound 39, O=C(c1cc(C(F)(F)F)nn1C)Nc2nc(ccc(C#N)c3)c3n2CC(F)(F)F] | > 30 | > 10 | > 10 | > 10 | > 10 | > 10 | > 10 | > 10 | > 10 |
| COc1ccc(C(=O)Nc2nc3ccc(C#N)cc3n2CC(F)(F)F)cn1 [Compound 43, O=C(c1ccc(OC)nc1)Nc2nc(ccc(C#N)c3)c3n2CC(F)(F)F] | > 30 | > 10 | > 10 | > 10 | > 10 | > 10 | > 10 | > 10 | > 10 |
| N#Cc1ccc2nc(NC(=O)c3ccnc(C(F)(F)F)c3)n(CC(F)(F)F)c2c1 [Compound 44, O=C(c1ccnc(C(F)(F)F)c1)Nc2nc(ccc(C#N)c3)c3n2CC(F)(F)F] | > 30 | > 10 | > 10 | > 10 | > 10 | > 10 | > 10 | > 10 | > 10 |
| N#Cc1ccc2nc(NC(=O)c3ccc(C(F)(F)F)nc3)n(CC(F)(F)F)c2c1 [Compound 45, O=C(c1ccc(C(F)(F)F)nc1)Nc2nc(ccc(C#N)c3)c3n2CC(F)(F)F] | > 30 | > 10 | > 10 | > 10 | > 10 | > 10 | > 10 | > 10 | > 10 |
